Results reported in publication PMC10447463, “Data-mining unveils structure–property–activity correlation of viral infectivity enhancing self-assembling peptides” (Nature Communications, 2023).
Where two headings read alike, the source gives them in different places.

How the values were obtained:
[1] = type: physicochemical; design: key to Fibril / Fibril Formation / TEM 2cat / Fibril: 1 = fibrils present; 0 non-fibrillar structures; details: for Fibril / Fibril Formation: TEM, 1 mg/mL, uranyl acetate stain, qualitative
[2] = system: HIV-1 infection of TZM-bl cells; test: HIV-1 infectivity enhancement assay, β-galactosidase luminescence; type: cell-based
[3] = Turbidity, derived count rate of scattered light; type: physicochemical; details: for Zeta Count Rate / kcps: mean; for Zeta Count Rate Category: key not given; for Count Rate / kcps: derived count rate of scattered light at 633 nm, 173°, from zeta-potential measurement, 0.1 mg/mL in 1 mM KCl after 1 d at 1 mg/mL in PBS, turbidity / microscopic aggregation, mean of triplicate
Outline: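 Samples: 1 mg/mL in PBS pH 7.4 (from DMSO), 1 d at RT, then diluted in 1 mM KCl immediately before measurement. Triplicates, two independent runs averaged.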

[4] = Zeta-potential measurement; type: physicochemical; details: for Zeta Pot. / mV / Zeta-Potential / mV: mean; for Zeta Pot. / mV: Std in separate column; for Zeta-pot. / mV: zeta potential of peptide, Fig S15 source data; for Zeta pot. / mV: 1 mg/mL in PBS pH 7.4 from 10 mg/mL DMSO stock, 1 d RT, 60 µL diluted in 600 µL 1 mM KCl, Zetasizer Nano ZS, Smoluchowski, mean of triplicate; for Zeta-Potential / mV: Figure 6C
Outline: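 Readout: zeta potential (mV) derived by Smoluchowski from measured electrophoretic mobility. Preformed aggregates (1 mg/mL peptide, PBS pH 7.4, RT for 1 d) were diluted into dilute KCl electrolyte (1 mM) shortly before analysis.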

[5] = infectivity class (low / medium / high) of each library peptide; main list in c1-c6, same classes repeated in sub-lists of sequences containing the hydrophobicity/charge patterns P+,H0,P+,H0,P0,H0,P0; P+,H0,P0,H0,P0,H0,P0; P+,H0,P0,H0
[6] = infectivity enhancement relative to EF-C (=1); Feb2021 run
[7] = infectivity n-fold relative to virus only; Feb2021 run
[8] = log10 of HIV-1 infection of TZM-bl cells relative to EF-C; Fig S15 source data; asymmetric std dev errors
[9] = log10 of infectivity relative to EF-C; Feb2021 run
[10] = derived count rate from zeta measurement
[11] = HIV-1 infection relative to EF-C; Fig 23 plot, panels A and B; mean of 3 values
[12] = HIV-1 infection relative to EF-C; Fig 23 plot, single data point, replicate 1
[13] = HIV-1 infection relative to EF-C; Fig 23 plot, single data point, replicate 2
[14] = HIV-1 infection relative to EF-C; Fig 23 plot, single data point, replicate 3
[15] = log10 of infection relative to EF-C, Figure 6C
[16] = n-fold infection vs virus only, relative to that of EF-C, 1.3 µM peptide
[17] = log10 of derived count rate of scattered light, Figure 6C
[18] = logarithm of count rate in kcps
[19] = Feb2021 run; infectivity n-fold relative to virus alone
[20] = Feb2021 run; log10 of infectivity relative to EF-C
[21] = Feb2021 run; n-fold infectivity relative to EF-C
[22] = infectivity class (low / medium / high) of the peptide in the sequence-pattern analysis, Fig. S22-A4; class limits not given

Row | Substance | TEM: 1= fibrils, 0= aggregates (micelle), 0.5 = aggregates and fibrils, -1 = nothing obersved, STD prep [1] | infectivity [2, 5] | Log10 Inf. rel. to EF-C [2, 8] | Zeta category ( +1 = if > 4 mV;-1 = if < -4 mV; 0 = -4mV to 4 mV) [4] | Zeta-pot. / mV [4] | Fibril / Fibril Formation [1] | Log10 Infection Rel EF-C [2, 15] | Inf. rel. EF-C [2, 16] | Count Rate / kcps [3] | Log10 Count Rate [3, 17] | Log10 Count Rate [3, 18] | Zeta-Potential / mV [4] | also measured
1 | CEFEFQF [KB12] | 0 | low | -2.283 | -1 (-1 = if < -4 mV) | -13.7 mV | – | – | – | – | – | – | – | Rel-to EFC (Feb-2021) [2, 6]: 0.003272; n-fold to virus (Feb2021) [2, 7]: 0.1375; Log10 of Rel to EFC (Feb2021) [2, 9]: -2.485; Zeta Count Rate / kcps [3, 10]: 405.4 kcps; Zeta Count Rate Category [3]: 1; Zeta Pot. / mV [4]: -24.5 mV
2 | CKFKFPF | – | – | – | – | – | 0 | -1.6054 | 0.02 | 143.4 kcps | 2.156 | 2.156 | -1.053 mV | Inf. rel. EF-C [2, 11]: 0.02481; Inf. rel. EF-C [2, 12]: 0.05139; Inf. rel. EF-C [2, 13]: 0.01572; Inf. rel. EF-C [2, 14]: 0.007313; Zeta pot. / mV [4]: -1.053 mV
3 | CKIKIQIII [AR0 / F19] | 1 | high | -0.01045 | 1 (+1 = if > 4 mV) | 16.2 mV | – | – | – | – | – | – | – | n-fold to virus (Feb2021) [2, 19]: 41.02; Log10 of Rel to EFC (Feb2021) [2, 20]: -0.01045; Rel-to EFC (Feb-2021) [2, 21]: 0.9762; infectivity [2, 22]: high; Zeta Count Rate / kcps ([3]; derived count rate of scattered light, std deviation in separate column): 4953 kcps; Zeta Pot. / mV [4]: 16.2 mV
4 | CKIKIQIRGD [psis21] | – | medium | -0.4842 | – | 7.157 mV | – | – | – | – | – | – | – | TEM: 1= fibrils, 0= aggregates (micelle), 0.5 = aggregates and fibrils, -1 = nothing obersved, STD prep ([1]; FigS26): 1
5 | CKIKIWIW | – | – | – | – | – | 1 | -0.06382 | 0.86 | 3321 kcps | 3.521 | 3.521 | 19.13 mV | –
6 | CKIWIQIY | – | – | – | – | – | 1 | -0.2415 | 0.57 | 1842.4 kcps | 3.265 | 3.265 | 4.537 mV | –
7 | CRFRFHFH | – | – | – | – | – | 1 | -0.2767 | 0.53 | 430.2 kcps | 2.634 | 2.634 | 19.6 mV | –
8 | CRLRVGVS | – | – | – | – | – | 0 | -1.362 | 0.04 | 35.07 kcps | 1.545 | 1.545 | 10.53 mV | Inf. rel. EF-C [2, 11]: 0.04346; Inf. rel. EF-C [2, 12]: 0.06547; Inf. rel. EF-C [2, 13]: 0.03045; Inf. rel. EF-C [2, 14]: 0.03448; Zeta pot. / mV [4]: 10.53 mV
9 | CRLSLSLS | – | – | – | – | – | 1 | -0.5039 | 0.31 | 1697 kcps | 3.23 | 3.23 | 8.977 mV | Inf. rel. EF-C [2, 11]: 0.3134; Inf. rel. EF-C [2, 13]: 0.2799; Inf. rel. EF-C [2, 14]: 0.2877; Zeta pot. / mV [4]: 8.977 mV
10 | EIEIQINM [TM95 / (TM75)] | 1 | – | -1.44 | -1 (-1 = if < -4 mV) | -23.33 mV | – | – | – | – | – | – | – | infectivity [2, 22]: low; Rel-to EFC (Feb-2021) [2, 6]: 0.03629; n-fold to virus (Feb2021) [2, 7]: 1.525; Log10 of Rel to EFC (Feb2021) [2, 9]: -1.44; Zeta Count Rate / kcps [3, 10]: 134 kcps; Zeta Count Rate Category [3]: 1; Zeta Pot. / mV [4]: -23.33 mV
11 | KFKFQFF [TG6] | 1 | medium | -0.9142 | 0 (0 = -4mV to 4 mV) | 6.903 mV | – | – | – | – | – | – | – | Absolute Infectivity / RLU /s (Feb2021) ([2]; Feb2021; figures match the 1.3 µM column): 2850 RLU /s; n-fold to virus (Feb2021) ([2]; Feb2021; infectivity relative to virus only): 5.12; Log10 of Rel to EFC (Feb2021) ([2]; Feb2021; log10 of infectivity relative to EF-C): -0.9142; Rel-to EFC (Feb-2021) ([2]; Feb2021; n-fold infectivity relative to EF-C): 0.1218; n-fold to virus (Feb2021) [2, 19]: 5.12; Log10 of Rel to EFC (Feb2021) [2, 20]: -0.9142; Rel-to EFC (Feb-2021) [2, 21]: 0.1218; Rel-to EFC (Feb-2021) [2, 6]: 0.1218; n-fold to virus (Feb2021) [2, 7]: 5.12; Log10 of Rel to EFC (Feb2021) [2, 9]: -0.9142
